The values that follow come from US7410553B2, “Building construction felt paper with biocide/anti-microbial treatment” (Atlas Roofing Corporation, priority 2005, dated 2008).

The subject of one series is Aspergillus niger. In words: Agar-Plate Test Method (modified ASTM G-21), radial mycelial growth on biocide-containing agar. Type of series: cell-based. The settings on record: for IC50 (ppm) Aspergillus niger: linear regression of radial growth. As for the experimental part:
(§1) Five biocides were chosen for a comparative evaluation for inhibition activity against three common mold fungi. The evaluation was performed at the Forest Research Labs of Mississippi State University in Starkville, Miss. (“MSU”) using a substantially modified version of ASTM G-21, termed the “The Agar-Plate Test Method”. This method provides a rapid screening test for the evaluation of biocides against a wide variety of microorganisms.
(§2) Five (5) biocide compositions (“biocides”) were evaluated using the Agar-Plate Test Method: (1) Microbe Shield, (2) Zinc Pyrithione (ZPT), (3) ortho-Phenyl Phenol, (4) Borogard ZB, and (5) a mixture evaluated of 50% Zinc Pyrithione with 50% Borogard ZB. These biocide compositions were added to autoclaved fungal media at different concentrations. […] Plugs of specific fungi were inoculated onto agar plates containing the different biocides/concentrations.
(§3) For terminology, “hypha” (singular) and “hyphae” (plural) is/are a loose network of delicate filaments in a fungus. […] (plus the adjective form “mycelial”) is/are the main part of fungus, consisting of the feeding and reproducing hyphae, that forms the body of a fungus. Radial growth of a mycelia is measured and plotted against concentration. A linear regression is run to estimate the biocide concentration that inhibits radial growth by 50%. This Inhibitory Concentration is called the IC50.
(§4) The five (5) different biocides that were involved in the comparative evaluations were tested at four (4) concentrations per biocide composition, plus a control (no biocide). The biocides were tested against three common mold fungi (Aspergillus niger, Cladosporium cladosporioides, and Penicillium funiculosum) with five (5) replicates for every treatment combination. The biocides that were tested and their concentrations were (1) Microbe Shield at 0, 3, 15, 75 and 375 ppm (“Parts Per Million”) ai (“Active Ingredient”); (2) Zinc Pyrithione at 0, 3, 15, 75 and 375 ppm ai; (3) ortho-Phenyl Phenol (“OPP”) at 0, 3, 15, 75 and 375 ppm ai; (4) Borogard ZB at 0, 10, 50, 250, and 1250 ppm ai; and (5) the 50:50 mixture of Zinc Pyrithione and Borogard ZB at 0, 1.5/5.0, 7.5/25, 37.5/125, and 187.5/625 ppm ai.
(§5) Stock concentrations of each biocide were dissolved or suspended in water or acetone (only OPP was dissolved in acetone) to a concentration that allowed 1 ml of stock to be added to 250 ml of media in order to provide the highest required biocide concentration. Stocks were diluted in a 5 fold series to match the concentrations required. For each biocide concentration, 250 ml of Sabouraund Dextrose Agar in water was autoclaved and then cooled to 50° C. Then 1 ml of the appropriate biocide concentration was added to each flask. Control flasks received 1 ml of water or acetone (for OPP). Media was mixed, dispensed into Petri dishes and allowed to cool. Each biocide test used 90 agar plates including controls.
(§6) A […] plug of agar was removed from every plate at the time of each study. A plug from an agar plate containing one of the fungi was inserted into the hole. The plug of fungi was taken from the leading edge of a fungal colony. Several plates of fungi were required for each study. The studies were grouped by fungi. The Cladosporium cladosporioides study began first; the Aspergillus niger study began next; and the Penicillium funiculosum study began last. Mycelial growth was measured for every plate in each study. Fast growing species were measured daily and slower growing species were measured every 2-3 days. All studies were carried for at least two weeks or until growth leveled out. Digital photographs were taken at different times during each fungal study.
(§7) The average for the five replicates of each biocide concentration was determined and the averages plotted as growth over time for each biocide.

Series [1] has as its system Cladosporium cladosporioides. The description is as above. Type of series: cell-based. As for the experimental part:
as §1, §2, §3, §4, §5, §6, §7

In the next series the test system is Penicillium funiculosum. The description is as above. It is filed as cell-based. As for the experimental part: as §1, §2, §3, §4, §5, §6, §7
For series [2] the following is noted: by one of California's hazardous materials watchdog organizations; NIOSH does not draw that conclusion; cited from earlier work.
For another series, the system named is other molds. The text has this:
(§8) As mentioned above, the example apparatus of FIG. 1 and any suitable biocide can be used for treating a nonwoven mat. Such biocides include but are not limited to those mentioned and evaluated, e.g., ZPT (zinc pyrithione), OPP (ortho-Phenyl Phenol), and Microbe Shield. […] A large number of differing levels of treatment were made and samples of each dosage rate retained.
(§9) In order to establish a range of dosage levels that might quantify their effectiveness, four (4) dosage levels were utilized: (a) 62-grams/MSF; (2) 86-grams/MSF; (3) 116-grams/MSF, and (4) 123-grams/MSF; plus a zero grams/MSF(0) control. The unit of measure: “per MSF” or per “Thousand Square Feet”, rather than a unit of weight; e.g., “per Ton”, is the most common unit of sale for many special nonwoven webs.
(§10) After the biocide was applied to the nonwoven web at the varying dosage levels, two different testing facilities were used to evaluate these samples: The Forest Research Labs of Mississippi State University (MSU), and the laboratory of Arch Chemicals, Inc. (“Arch”). MSU evaluated the treated samples for resistance to mold using testing procedures of, e.g., ASTM D 6329-98, “Standard Guide for Developing Methodology for Evaluating the Ability of Indoor Materials to Support Microbial Growth Using Static Environmental Chambers,” and Arch Chemicals utilized ASTM G 21-96 (Re-approved 2002), “Standard Practice for Determining Resistance of Synthetic Polymeric Materials to Fungi”, both from ASTM International, PA, USA.
(§11) The MSU testing used the fungus Stachybotrys chartarum, but allowed “other molds” to enter the chamber. The Stachybotrys chartarum (ATCC 9182) was grown on Potato Dextrose Agar (“PDA”) and Sabouraud Dextrose Agar and allowed to sporulate (i.e., produce spores). This procedure followed ASTM C 1338-00, Standard Test Method for Determining Fungi Resistance of Insulation Materials and Facings. ASTM International, PA., USA. The solution was adjusted with additional sterile water until a spore count of approximately 940,000 cells per ml was obtained. This solution was the inoculum. A portion of this solution was also plated onto PDA to confirm the viable cell count. In the test, the nonwoven felt pieces were laid out with their treated side up, and inoculated with the spore suspension by an atomizer (ASTM C 1338-00). The pieces were allowed to air dry for several hours before being placed into the static environmental chambers. There were five replicates for each sample set (62-grams/MSF; 86-grams/MSF; 116-grams/MSF, and 123-grams/MSF; plus a zero (0) control) for each sampling period (2 weeks, 4 weeks, and 6 weeks).
(§12) The numbers in Table 3 are in colony forming units (CFUs), a well known standard of measure prescribed, e.g., by ASTM 6329-98.

Series [3] relates to Stachybotrys chartarum (ATCC 9182).
From the text: as §8, §9, §10, §11, §12

[4] abbreviates: footnote a: extrapolation outside of the test concentration range.
[5] abbreviates: ppm ai in agar, linear regression of radial growth.
Where [6] appears, read: nonwoven felt with 62-g/MSF ZPT, Week Number 2.
The mark [7] stands for this setting: nonwoven felt with 62-g/MSF ZPT, Week Number 4.
Setting [8] is: nonwoven felt with 62-g/MSF ZPT, Week Number 6.
The mark [9] stands for this setting: nonwoven felt with 86-g/MSF ZPT, Week Number 2.
[10] abbreviates: nonwoven felt with 86-g/MSF ZPT, Week Number 4.
[11] abbreviates: nonwoven felt with 86-g/MSF ZPT, Week Number 6.
Setting [12] is: nonwoven felt with 116-g/MSF ZPT, Week Number 2.
Setting [13] is: nonwoven felt with 116-g/MSF ZPT, Week Number 4.
[14] abbreviates: nonwoven felt with 116-g/MSF ZPT, Week Number 6.
[15] abbreviates: nonwoven felt with 123-g/MSF ZPT, Week Number 2.
Where [16] appears, read: nonwoven felt with 123-g/MSF ZPT, Week Number 4.
[17] abbreviates: nonwoven felt with 123-g/MSF ZPT, Week Number 6.
Setting [18] is: concluded from Table 3 and Table 4.
Setting [19] is: ppm ai in agar, totally inhibits fungal growth.

Like-named read-outs stand apart in the source and are kept apart here. Marks after values point to notes of the source that are not given here.

In the case of `CCCCCCCCCCCCCCCCCC[N+](C)(C)CCC[Si](OC)(OC)OC.[Cl-]` [Microbe Shield, 3-trimethixysilylpropyldimethyloctadecyl ammonium chloride], the “MIC (ppm) Aspergillus niger” value with Aspergillus niger (setting [4]) was 625^a ppm. Besides, in the series on Aspergillus niger (ppm ai in agar), the “IC50 (ppm) Aspergillus niger” value is recorded as 286 ppm. Besides, in series [1] (setting [4]), the “IC50 (ppm) Cladosporium cladosporioides” value is 2025^a ppm and the “MIC (ppm) Cladosporium cladosporioides” value is recorded as 5575^a ppm. For the same molecule, in the series on Penicillium funiculosum (setting [4]), the “IC50 (ppm) Penicillium Funiculosum” value was 670^a ppm and the “MIC (ppm) Penicillium Funiculosum” value was 1289^a ppm.
Consider `Oc1ccccc1-c1ccccc1` [OPP, ortho-Phenyl Phenol], for which the carcinogenicity rating entry in series [2] is given as “human carcinogen”. Moreover, the MIC (as a rule, the least concentration at which growth counts as inhibited) is 84.5 µg/mL with Aspergillus niger (Aspergillus niger, read-out: MIC (ppm) Aspergillus niger); at most 375 µg/mL in series [1] (Cladosporium cladosporioides, read-out: MIC (ppm) Cladosporium cladosporioides); at most 375 µg/mL in the series with Penicillium funiculosum (Talaromyces funiculosus, read-out: MIC (ppm) Penicillium Funiculosum). For the same molecule, the “IC50 (ppm) Aspergillus niger” value with Aspergillus niger (ppm ai in agar) came to 16.3 ppm. The “IC50 (ppm) Cladosporium cladosporioides” value in series [1] (setting [5]) was ≤ 203.8^b ppm. Also, the “IC50 (ppm) Penicillium Funiculosum” value in the series on Penicillium funiculosum (setting [5]) is recorded as ≤ 212.6^b ppm.
Turning to zinc pyrithione [Zn Pyrithione], the “Other Mold colony forming units” value with other molds (setting [6]) amounted to 880 CFUs; in the series with other molds (setting [7]), 3360 CFUs; in the series with other molds (setting [8]), 19730 CFUs; with other molds (setting [9]) it was 530 CFUs; in the series on other molds (setting [10]), 3450 CFUs; in the series with other molds (setting [11]), 4100 CFUs. Further, the “Other Mold colony forming units” value with other molds (setting [12]) turned out to be 67 CFUs; with other molds (setting [13]), 125 CFUs; in the series with other molds (setting [14]), 7540 CFUs; with other molds (setting [15]) it was 0 CFUs; in the series on other molds (setting [16]) it was 54 CFUs; in the series on other molds (setting [17]), 5380 CFUs. The “mold growth in the MSU test” value in series [3] (biocide dose of 62-grams ZPT per MSF) is “mold DOES grow”. For the same molecule, in series [3] (setting [18]), the “amount of biocide at which mold resistance is optimum” value is reported as ≥ 100 grams per MSF (per side). The “amount of biocide at which significant mold resistance is imparted” value in series [3] (setting [18]) was at least 50 grams per MSF per side. Also, the “Stachybotrys colony forming units” value in series [3] (setting [6]) worked out at 0 CFUs; in series [3] (setting [7]), 680 CFUs; in series [3] (setting [8]), 3710 CFUs; in series [3] (setting [9]) it was 0 CFUs; in series [3] (setting [10]) it was 390 CFUs; in series [3] (setting [11]), 1110 CFUs. Besides, the “Stachybotrys colony forming units” value was 0 CFUs in series [3] (setting [12]); 0 CFUs in series [3] (setting [13]); 0.2 CFUs in series [3] (setting [14]); 0 CFUs in series [3] (setting [15]); 0.4 CFUs in series [3] (setting [16]); 0 CFUs in series [3] (setting [17]). Besides, the “IC50 (ppm) Aspergillus niger” value in the series with Aspergillus niger (ppm ai in agar) was found to be 9.2 ppm. For the same molecule, the “MIC (ppm) Aspergillus niger” value in the series on Aspergillus niger (setting [19]) turned out to be 21.2 ppm. In series [1] (setting [5]), the “IC50 (ppm) Cladosporium cladosporioides” value was ≤ 1.8^b ppm. Also, the “MIC (ppm) Cladosporium cladosporioides” value in series [1] (setting [19]) is ≤ 15^b ppm. Moreover, the “IC50 (ppm) Penicillium Funiculosum” value with Penicillium funiculosum (setting [5]) came out at 8.0 ppm. Moreover, the “MIC (ppm) Penicillium Funiculosum” value with Penicillium funiculosum (setting [19]) is 16.2 ppm.
